# Measurements taken from patent publication US4753958A, “Photochemotherapy of epithelial diseases with derivatives of hematoporphyrins” (priority 1986, dated 1988).
# Key:
# [1] = test system: guinea pig skin; assay: Cutaneous phototoxicity after systemic (I.P.) administration and UVA; type: in vivo, Guinea pigs; settings: 10 mg/kg I.P., graded 24 hours post light
# Method: (§1) HPD, DHE, hematoporphyrin and protoporphyrin were provided by Dr. Thomas J. Dougherty, Roswell Park Memorial Institute, Buffalo, NY. Hydroxyvinyldeuteroporphyrin was obtained from Porphyrin Products, Salt Lake City, UT.
# Guinea pigs were treated systemically (I.P.) with the various porphyrins, each at a dose of 10 mg/kg. Animals were then irradiated with UVA (20 J/cm^2), either at 6 hours or 24 hours post drug administration. Erythema was graded at 24 hours post light treatment.
# [2] = test system: guinea pig skin; assay: Cutaneous phototoxicity after intradermal administration and UVA (minimum phototoxic dose); type: in vivo; settings: intradermal 5-500 μg/0.1 ml; UVA 20 J/cm^2 6 hours post injection
# Method: as §1
# (§2) Drugs were administered intradermally at doses ranging from 5-500 μg/0.1 ml. Sites were then treated with UVA (20 J/cm^2) 6 hours post drug injection.
# [3] = test system: guinea pig skin; assay: Drug/UVA dosimetry with intradermal HPD and DHE; type: in vivo
# Method: as §1, §2
# Additional studies were done with intradermal HPD and DHE to study the drug/UVA dosimetry.
# [4] = test system: epidermal DNA synthesis; assay: Effect of topical DHE plus UVA on epidermal DNA synthesis in vivo; design: species or system Mini-pigs
# Method: The topical activity of DHE was evaluated in vivo in a mini-pig model.
# Mini-pigs were obtained from Charles River Laboratories, Inc. (Wilmington, MA). Drug preparations were applied to small areas of dorsal skin (ca 1 inch square) according to the selected application schedules. Six hours following the last drug application, tritiated thymidine was injected into the drug treatment sites for autoradiographic assessment of epidermal proliferation as measured by epidermal labeling index. Weinstein & Van Scott, (1965) J. Invest. Derm. 44:413.
# DHE was acid precipitated from a Photofrin II solution by adjusting the pH to 3.5. The precipitated DHA was washed extensively with distilled water until the pH of the filtrate reached 6.0. The DHE powder was vacuum dried, reconstituted in distilled water, and the pH adjusted to 7.0. Aqueous DHE was then mixed with isopropanol and Azone. […] This formulation was applied to selected areas of mini-pig skin approximately 6 hours before irradiation with UVA. Epidermal DNA synthesis was assayed as described above. At 0, 24, 48, and 72 hours post-irradiation, the animals were injected at the selected sites with isotopic precursors (tritiated thymidine). The animals were biopsied one hour after isotopic injection.
# [5] = test system: malignant cells; settings: HPD enriched for DHE, administered systemically; cited from earlier work
# [6] = test system: skin cancers; settings: cited from earlier work
# [7] = test system: psoriasis; settings: oral methoxysalen plus long-wave ultraviolet light (PUVA); cited from earlier work
molecule,measurement,setting,value
dihematoporphyrin ether [DHE],erythema response,[1]; UVA 20 J/cm^2 at 6 hours,significant response
same,erythema response,"[1]; UVA 20 J/cm^2 at 24 hours, compared with 6 hours for HPD and DHE",greater
same,minimum phototoxic dose,[2],5 µg
same,"erythema, UVA at 24 hours vs 6 hours post injection",[3]; intradermal,more pronounced erythema
same,UVA dose effective in producing erythema,[3]; intradermal DHE 5 μg/cm^2,1 J/cm^2
same,erythema response compared with HPD,"[3]; intradermal DHE 5 μg/cm^2, comparable treatments",slightly greater than with comparable treatments with HPD
same,"area of erythema, UVA at 24 hours vs 6 hours post injection","[3]; intradermal, local drug diffusion from injection site",larger area of erythema
same,time of maximum effect post light treatment,"[4]; 1% DHE topical plus UVA, autoradiographically and clinically",72 h
same,inhibition of DNA synthesis compared to vehicle control plus UVA,"[4]; 1% DHE topical, 48% isopropanol, 4% Azone, 48% water, 5-10 applications plus UVA, FIG. 1",significant inhibition of DNA synthesis
same,phototoxicity toward malignant cells,[5],phototoxic properties toward malignant cells
CC1=C(CCC(=O)O)c2cc3[nH]c(cc4nc(cc5[nH]c(cc1n2)c(C)c5C(C)O)C(C)=C4C(C)O)c(C)c3CCC(=O)O (stereo not shown) [hematoporphyrin],erythema response,[1]; UVA 20 J/cm^2 at 6 hours,mild response
COc1c2occc2cc2ccc(=O)oc12 [methoxysalen],skin cancers in patients following PUVA,[6],increased pattern of skin cancers
same,clinical effectiveness in psoriasis,[7],relatively effective for the majority of patients
C=CC1=C(C)c2cc3[nH]c(cc4nc(cc5[nH]c(cc1n2)c(C)c5CCC(=O)O)C(CCC(=O)O)=C4C)c(C)c3C=C [protoporphyrin],erythema response,[1]; UVA 20 J/cm^2 at 6 hours,No response
Hydroxyvinyldeuteroporphyrin,erythema response,[1]; UVA 20 J/cm^2 at 6 hours,No response
same,minimum phototoxic dose,[2],> 500 µg
